Here are results for 13 compounds from ChEMBL document CHEMBL1134821, “Synthesis and anti-HIV activity of oleanolic acid derivatives” (Bioorg Med Chem Lett, 2001).

The structures appear in SMILES notation. ≈ marks a conversion by molar mass, not a printed value.

Series [1] has as its system H9. The experiment in a line: Concentration which was toxic to 50% of the mock-infected H9 lymphocyte. Format: functional, cell-based. To be noted: Homo sapiens.
Series [2] concerns H9. The experiment in a line: Antiviral activity against HIV-1(IIIB) infected H9 cell lines. The class given is functional, cell-based. The note with it: Homo sapiens.
Series [3] is described as follows: Therapeutic index was determined. To be noted: for selectivity ratio: read-out: TI.

A word on the IC50: it is the point on the concentration scale where inhibition reaches its midpoint. Lower therefore signals higher potency. A word on the EC50: it is the concentration at which the effect is half-maximal. High values mean weaker potency, low ones greater potency. As for `CC1(C)CC[C@]2(CNC(=O)CC3(CC(=O)O)CCCC3)CC[C@]3(C)C(=CC[C@@H]4[C@@]5(C)CC[C@H](OC(=O)CC6(CC(=O)O)CCCC6)C(C)(C)[C@@H]5CC[C@]43C)[C@@H]2C1`, the IC50 in the series with H9 [1] is 19.5 µg/mL (≈ 25.1 µM). Moreover, the response in the series on H9 [2] was half-maximal at 0.1 µg/mL (≈ 0.129 µM) (EC50). For the same compound, the selectivity ratio in series [3] is 195.
As to `CC(C)(CC(=O)O)CC(=O)O[C@H]1CC[C@]2(C)[C@H]3CC=C4[C@@H]5CC(C)(C)CC[C@]5(C(=O)O)CC[C@@]4(C)[C@]3(C)CC[C@H]2C1(C)C`, the IC50 in the series with H9 [1] is 14.2 µg/mL (≈ 23.7 µM). Moreover, in the series with H9 [2], a half-maximal effect (EC50) was put at 1.5 µg/mL (≈ 2.5 µM).
As for `CC1(C)CC[C@]2(C(=O)O)CC[C@]3(C)C(=CC[C@@H]4[C@@]5(C)CC[C@H](OC(=O)CCCC(=O)O)C(C)(C)[C@@H]5CC[C@]43C)[C@@H]2C1`, half-maximal inhibition in the series on H9 [1] (IC50) was put at 14.6 µg/mL (≈ 25.6 µM). In addition, it took 7.1 µg/mL (≈ 12.4 µM) to reach a half-maximal effect in the series with H9 [2] (EC50).
Consider `CC1(C)CC[C@]2(C(=O)O)CC[C@]3(C)[C@H](CC[C@@H]4[C@@]5(C)CC[C@H](OC(=O)CCCC(=O)O)C(C)(C)[C@@H]5CC[C@]43C)[C@@H]2C1`, for which the half-maximal inhibitory concentration (IC50) in the series on H9 [1] came out at 12.9 µg/mL (≈ 22.5 µM). The compound also returned an EC50 with H9 [2] of 2.6 µg/mL (≈ 4.54 µM). In addition, the selectivity ratio in series [3] worked out at 4.9.
In the series with H9 [1], `CC(CC(=O)O)CC(=O)O[C@H]1CC[C@]2(C)[C@H]3CC[C@@H]4[C@@H]5CC(C)(C)CC[C@]5(C(=O)O)CC[C@@]4(C)[C@]3(C)CC[C@H]2C1(C)C` (stereo partly specified) showed an IC50 of 12.3 µg/mL (≈ 21 µM). In the series with H9 [2], this compound displayed an EC50 of 0.1 µg/mL (≈ 0.17 µM). In addition, the selectivity ratio in series [3] stood at 123.
In the series on H9 [1], `CC1(C)CC[C@]2(C(=O)O)CC[C@]3(C)C(=CC[C@@H]4[C@@]5(C)CC[C@H](OC(=O)CC6(CC(=O)O)CCCC6)C(C)(C)[C@@H]5CC[C@]43C)[C@@H]2C1` came in with an IC50 of 4.7 µg/mL (≈ 7.52 µM). Also, in the series on H9 [2], the midpoint of the response, the EC50, lay at 1.2 µg/mL (≈ 1.92 µM).
In the series on H9 [1], `CC1(C)CC[C@]2(C(=O)O)CC[C@]3(C)[C@H](CC[C@@H]4[C@@]5(C)CC[C@H](OC(=O)CC(C)(C)C(=O)O)C(C)(C)[C@@H]5CC[C@]43C)[C@@H]2C1` yielded an IC50 of 13.7 µg/mL (≈ 23.3 µM). In the series with H9 [2], a half-maximal response (EC50) required 0.0039 µg/mL (≈ 0.00665 µM). Moreover, the selectivity ratio in series [3] worked out at 3570.
On to `CC1(C)CC[C@]2(C(=O)O)CC[C@]3(C)C(=CC[C@@H]4[C@@]5(C)CC[C@H](O)C(C)(C)[C@@H]5CC[C@]43C)[C@@H]2C1` [OLEANOLIC_ACID], for which half-maximal inhibition in the series on H9 [1] (IC50) was put at 21.8 µg/mL (≈ 47.7 µM). It took 1.7 µg/mL (≈ 3.72 µM) to reach a half-maximal effect with H9 [2] (EC50). In series [3], the TI is given as 12.8.
`CC(C)(CC(=O)O)CC(=O)NC[C@]12CCC(C)(C)C[C@H]1C1=CC[C@@H]3[C@@]4(C)CC[C@H](OC(=O)CC(C)(C)CC(=O)O)C(C)(C)[C@@H]4CC[C@@]3(C)[C@]1(C)CC2` had an IC50 with H9 [1] of 21.2 µg/mL (≈ 29.2 µM). Moreover, in the series on H9 [2], the EC50 came to 0.1 µg/mL (≈ 0.138 µM). Also, the selectivity ratio in series [3] is 212.
For `CC1(C)CC[C@]2(C(=O)O)CC[C@]3(C)[C@H](CC[C@@H]4[C@@]5(C)CC[C@H](O)C(C)(C)[C@@H]5CC[C@]43C)[C@@H]2C1`, the IC50 in the series on H9 [1] came out at 17.4 µg/mL (≈ 37.9 µM). The compound also showed an EC50 with H9 [2] of 0.5 µg/mL (≈ 1.09 µM). Moreover, the selectivity ratio in series [3] stood at 34.8.
In the series with H9 [1], `CC(C)(CC(=O)O)CC(=O)O[C@H]1CC[C@]2(C)[C@H]3CC[C@@H]4[C@@H]5CC(C)(C)CC[C@]5(C(=O)O)CC[C@@]4(C)[C@]3(C)CC[C@H]2C1(C)C` registered an IC50 of 8.3 µg/mL (≈ 13.8 µM). This compound showed an EC50 in the series with H9 [2] of 0.1 µg/mL (≈ 0.166 µM). For the same compound, in series [3], the selectivity ratio stood at 83.
`CC(CC(=O)O)CC(=O)O[C@H]1CC[C@]2(C)[C@H]3CC=C4[C@@H]5CC(C)(C)CC[C@]5(C(=O)O)CC[C@@]4(C)[C@]3(C)CC[C@H]2C1(C)C` (stereo partly specified): in the series on H9 [1], the IC50 is 27.5 µg/mL (≈ 47 µM). The compound also gave an EC50 in the series on H9 [2] of 8.3 µg/mL (≈ 14.2 µM). Also, the selectivity ratio in series [3] came to 3.3.
On to `CC1(C)CC[C@]2(C(=O)O)CC[C@]3(C)[C@H](CC[C@@H]4[C@@]5(C)CC[C@H](OC(=O)CC6(CC(=O)O)CCCC6)C(C)(C)[C@@H]5CC[C@]43C)[C@@H]2C1`, for which the midpoint of inhibition in the series with H9 [1], the IC50, lay at 10.1 µg/mL (≈ 16.1 µM). Further, the EC50 with H9 [2] stood at 0.1 µg/mL (≈ 0.16 µM). Moreover, the selectivity ratio in series [3] came to 101.
